{"source": "patent US20230085307A1", "about": "“PYRIDAZINONE COMPOUND AND HERBICIDE” (NISSAN CHEMICAL CORPORATION, priority 2019, published 2023)", "key": {"barnyard grass [1]": {"system": "barnyard grass", "experiment": "Test Example 3: herbicidal effect by foliage application, Wagner pot (Table 18, symbol H)", "assay_type": "in vivo, barnyard grass (Echinochloa crus-galli)", "settings": "320 g/ha", "procedure,_shortened": "(§1)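 Plants were sown in alluvial soil held under 0.1–0.5 cm standing water and grown 14 days in a greenhouse at 25–30 °C. An emulsifiable formulation, water-diluted to the set dose, was then sprayed onto the foliage, and effects were scored three weeks later using previously defined criteria.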"}, "Chinese sprangletop": {"system": "Chinese sprangletop", "experiment": "Test Example 3: herbicidal effect by foliage application, Wagner pot (Table 18, symbol D)", "assay_type": "in vivo, chinese sprangletop (Leptochloa chinensis)", "settings": "320 g/ha", "procedure,_shortened": "as §1"}, "rice flat sedge": {"system": "rice flat sedge", "experiment": "Test Example 3: herbicidal effect by foliage application, Wagner pot (Table 18, symbol E)", "assay_type": "in vivo, rice flat sedge (Cyperus iria)", "settings": "320 g/ha", "procedure,_shortened": "as §1"}, "southern crabgrass [2]": {"system": "southern crabgrass", "experiment": "Test Example 4: herbicidal effect by soil treatment (Table 19, symbol F)", "assay_type": "in vivo, southern crabgrass (Digitaria ciliaris)", "settings": "amount of applied herbicide 320 g/ha", "procedure,_shortened": "(§2)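 Applied as a water-diluted emulsion, the compound was sprayed onto soil covering newly sown seeds. Evaluation came three weeks after application, in a greenhouse held at 25° C. to 30° C.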"}, "green foxtail [3]": {"system": "green foxtail", "experiment": "Test Example 4: herbicidal effect by soil treatment (Table 19, symbol G)", "assay_type": "in vivo, green foxtail (Setaria viridis)", "settings": "amount of applied herbicide 320 g/ha", "procedure,_shortened": "as §2"}, "barnyard grass [4]": {"system": "barnyard grass", "experiment": "Test Example 4: herbicidal effect by soil treatment (Table 19, symbol H)", "assay_type": "in vivo, barnyard grass (Echinochloa crus-galli)", "settings": "amount of applied herbicide 320 g/ha", "procedure,_shortened": "as §2"}, "wild oat [5]": {"system": "wild oat", "experiment": "Test Example 4: herbicidal effect by soil treatment (Table 19, symbol I)", "assay_type": "in vivo, wild oat (Avena fatua)", "settings": "amount of applied herbicide 320 g/ha", "procedure,_shortened": "as §2"}, "blackgrass [6]": {"system": "blackgrass", "experiment": "Test Example 4: herbicidal effect by soil treatment (Table 19, symbol J)", "assay_type": "in vivo, blackgrass (Alopecurus myosuroides)", "settings": "amount of applied herbicide 320 g/ha", "procedure,_shortened": "as §2"}, "Italian ryegrass [7]": {"system": "Italian ryegrass", "experiment": "Test Example 4: herbicidal effect by soil treatment (Table 19, symbol K)", "assay_type": "in vivo, Italian ryegrass (Lolium multiflorum)", "settings": "amount of applied herbicide 320 g/ha", "procedure,_shortened": "as §2"}, "windgrass [8]": {"system": "windgrass", "experiment": "Test Example 4: herbicidal effect by soil treatment (Table 19, symbol L)", "assay_type": "in vivo, windgrass (Apera spica-venti)", "settings": "amount of applied herbicide 320 g/ha", "procedure,_shortened": "as §2"}, "velvetleaf [9]": {"system": "velvetleaf", "experiment": "Test Example 4: herbicidal effect by soil treatment (Table 19, symbol M)", "assay_type": "in vivo, velvetleaf (Abutilon theophrasti)", "settings": "amount of applied herbicide 320 g/ha", "procedure,_shortened": "as §2"}, "redroot pigweed [10]": {"system": "redroot pigweed", "experiment": "Test Example 4: herbicidal effect by soil treatment (Table 19, symbol N)", "assay_type": "in vivo, redroot pigweed (Amaranthus retroflexus)", "settings": "amount of applied herbicide 320 g/ha", "procedure,_shortened": "as §2"}, "lambsquarters [11]": {"system": "lambsquarters", "experiment": "Test Example 4: herbicidal effect by soil treatment (Table 19, symbol O)", "assay_type": "in vivo, lambsquarters (Chenopodium album)", "settings": "amount of applied herbicide 320 g/ha", "procedure,_shortened": "as §2"}, "false cleavers": {"system": "false cleavers", "experiment": "Test Example 4: herbicidal effect by soil treatment (Table 19, symbol Q)", "assay_type": "in vivo, false cleavers (Galium spurium)", "settings": "amount of applied herbicide 320 g/ha", "procedure,_shortened": "as §2"}, "southern crabgrass [12]": {"system": "southern crabgrass", "experiment": "Test Example 5: herbicidal effect by foliage application, plastic box (Table 20, symbol F)", "assay_type": "in vivo, southern crabgrass (Digitaria ciliaris)", "settings": "320 g/ha, foliage application after 14-day growth, evaluated three weeks after application", "procedure,_shortened": "(§3)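 Sow seeds spot-wise in sterilized diluvial soil; cover with ~1.5 cm soil. Grow 14 days in greenhouse, 25° C. to 30° C. Spray foliage with emulsion diluted to predetermined amount. Rate effect after 3 weeks.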"}, "green foxtail [13]": {"system": "green foxtail", "experiment": "Test Example 5: herbicidal effect by foliage application, plastic box (Table 20, symbol G)", "assay_type": "in vivo, green foxtail (Setaria viridis)", "settings": "320 g/ha, foliage application after 14-day growth, evaluated three weeks after application", "procedure,_shortened": "as §3"}, "barnyard grass [14]": {"system": "barnyard grass", "experiment": "Test Example 5: herbicidal effect by foliage application, plastic box (Table 20, symbol H)", "assay_type": "in vivo, barnyard grass (Echinochloa crus-galli)", "settings": "320 g/ha, foliage application after 14-day growth, evaluated three weeks after application", "procedure,_shortened": "as §3"}, "wild oat [15]": {"system": "wild oat", "experiment": "Test Example 5: herbicidal effect by foliage application, plastic box (Table 20, symbol I)", "assay_type": "in vivo, wild oat (Avena fatua)", "settings": "320 g/ha, foliage application after 14-day growth, evaluated three weeks after application", "procedure,_shortened": "as §3"}, "blackgrass [16]": {"system": "blackgrass", "experiment": "Test Example 5: herbicidal effect by foliage application, plastic box (Table 20, symbol J)", "assay_type": "in vivo, blackgrass (Alopecurus myosuroides)", "settings": "320 g/ha, foliage application after 14-day growth, evaluated three weeks after application", "procedure,_shortened": "as §3"}, "Italian ryegrass [17]": {"system": "Italian ryegrass", "experiment": "Test Example 5: herbicidal effect by foliage application, plastic box (Table 20, symbol K)", "assay_type": "in vivo, Italian ryegrass (Lolium multiflorum)", "settings": "320 g/ha, foliage application after 14-day growth, evaluated three weeks after application", "procedure,_shortened": "as §3"}, "windgrass [18]": {"system": "windgrass", "experiment": "Test Example 5: herbicidal effect by foliage application, plastic box (Table 20, symbol L)", "assay_type": "in vivo, windgrass (Apera spica-venti)", "settings": "320 g/ha, foliage application after 14-day growth, evaluated three weeks after application", "procedure,_shortened": "as §3"}, "velvetleaf [19]": {"system": "velvetleaf", "experiment": "Test Example 5: herbicidal effect by foliage application, plastic box (Table 20, symbol M)", "assay_type": "in vivo, velvetleaf (Abutilon theophrasti)", "settings": "320 g/ha, foliage application after 14-day growth, evaluated three weeks after application", "procedure,_shortened": "as §3"}, "redroot pigweed [20]": {"system": "redroot pigweed", "experiment": "Test Example 5: herbicidal effect by foliage application, plastic box (Table 20, symbol N)", "assay_type": "in vivo, redroot pigweed (Amaranthus retroflexus)", "settings": "320 g/ha, foliage application after 14-day growth, evaluated three weeks after application", "procedure,_shortened": "as §3"}, "lambsquarters [21]": {"system": "lambsquarters", "experiment": "Test Example 5: herbicidal effect by foliage application, plastic box (Table 20, symbol O)", "assay_type": "in vivo, lambsquarters (Chenopodium album)", "settings": "320 g/ha, foliage application after 14-day growth, evaluated three weeks after application", "procedure,_shortened": "as §3"}, "chickweed": {"system": "chickweed", "experiment": "Test Example 5: herbicidal effect by foliage application, plastic box (Table 20, symbol P)", "assay_type": "in vivo, common chickweed (Stellaria media)", "settings": "320 g/ha, foliage application after 14-day growth, evaluated three weeks after application", "procedure,_shortened": "as §3"}, "persian speedwell": {"system": "persian speedwell", "experiment": "Test Example 5: herbicidal effect by foliage application, plastic box (Table 20, symbol R)", "assay_type": "in vivo, Persian speedwell (Veronica persica)", "settings": "320 g/ha, foliage application after 14-day growth, evaluated three weeks after application", "procedure,_shortened": "as §3"}}, "data": [{"molecule": "Cc1nn(C)c(=O)c(-c2c(-c3ccc(Cl)cc3)sc3c(Cl)cccc23)c1O", "note": "[4-017]", "values": [{"measurement": "herbicidal effect on barnyard grass (H)", "setting": "barnyard grass [1]", "value": "4 (Herbicidal rate of 70% or more and less than 90%)"}, {"measurement": "herbicidal effect on Chinese sprangletop (D)", "setting": "Chinese sprangletop", "value": "0 (Herbicidal rate of 5% or less (almost no effect))"}, {"measurement": "herbicidal effect on rice flat sedge (E)", "setting": "rice flat sedge", "value": "3 (Herbicidal rate of 40% or more and less than 70%)"}, {"measurement": "Herbicidal effect by soil treatment, F: southern crabgrass", "setting": "southern crabgrass [2]", "value": "0 (Herbicidal rate of 5% or less (almost no effect))"}, {"measurement": "Herbicidal effect by soil treatment, G: green foxtail", "setting": "green foxtail [3]", "value": "0 (Herbicidal rate of 5% or less (almost no effect))"}, {"measurement": "Herbicidal effect by soil treatment, H: barnyard grass", "setting": "barnyard grass [4]", "value": "0 (Herbicidal rate of 5% or less (almost no effect))"}, {"measurement": "Herbicidal effect by soil treatment, I: wild oat", "setting": "wild oat [5]", "value": "0 (Herbicidal rate of 5% or less (almost no effect))"}, {"measurement": "Herbicidal effect by soil treatment, J: blackgrass", "setting": "blackgrass [6]", "value": "0 (Herbicidal rate of 5% or less (almost no effect))"}, {"measurement": "Herbicidal effect by soil treatment, K: Italian ryegrass", "setting": "Italian ryegrass [7]", "value": "0 (Herbicidal rate of 5% or less (almost no effect))"}, {"measurement": "Herbicidal effect by soil treatment, L: windgrass", "setting": "windgrass [8]", "value": "2 (Herbicidal rate of 20% or more and less than 40%)"}, {"measurement": "Herbicidal effect by soil treatment, M: velvetleaf", "setting": "velvetleaf [9]", "value": "0 (Herbicidal rate of 5% or less (almost no effect))"}, {"measurement": "Herbicidal effect by soil treatment, N: redroot pigweed", "setting": "redroot pigweed [10]", "value": "0 (Herbicidal rate of 5% or less (almost no effect))"}, {"measurement": "Herbicidal effect by soil treatment, O: lambsquarters", "setting": "lambsquarters [11]", "value": "0 (Herbicidal rate of 5% or less (almost no effect))"}, {"measurement": "Herbicidal effect by soil treatment, Q: false cleavers", "setting": "false cleavers", "value": "0 (Herbicidal rate of 5% or less (almost no effect))"}, {"measurement": "herbicidal effect on F: southern crabgrass (evaluation grade 0-5)", "setting": "southern crabgrass [12]", "value": "0 (Herbicidal rate of 5% or less (almost no effect))"}, {"measurement": "herbicidal effect on G: green foxtail (evaluation grade 0-5)", "setting": "green foxtail [13]", "value": "0 (Herbicidal rate of 5% or less (almost no effect))"}, {"measurement": "herbicidal effect on H: barnyard grass (evaluation grade 0-5)", "setting": "barnyard grass [14]", "value": "0 (Herbicidal rate of 5% or less (almost no effect))"}, {"measurement": "herbicidal effect on I: wild oat (evaluation grade 0-5)", "setting": "wild oat [15]", "value": "3 (Herbicidal rate of 40% or more and less than 70%)"}, {"measurement": "herbicidal effect on J: blackgrass (evaluation grade 0-5)", "setting": "blackgrass [16]", "value": "3 (Herbicidal rate of 40% or more and less than 70%)"}, {"measurement": "herbicidal effect on K: Italian ryegrass (evaluation grade 0-5)", "setting": "Italian ryegrass [17]", "value": "1 (Herbicidal rate of 5% or more and less than 20%)"}, {"measurement": "herbicidal effect on L: windgrass (evaluation grade 0-5)", "setting": "windgrass [18]", "value": "4 (Herbicidal rate of 70% or more and less than 90%)"}, {"measurement": "herbicidal effect on M: velvetleaf (evaluation grade 0-5)", "setting": "velvetleaf [19]", "value": "4 (Herbicidal rate of 70% or more and less than 90%)"}, {"measurement": "herbicidal effect on N: redroot pigweed (evaluation grade 0-5)", "setting": "redroot pigweed [20]", "value": "5 (Herbicidal rate of 90% or more (almost completely withered))"}, {"measurement": "herbicidal effect on O: lambsquarters (evaluation grade 0-5)", "setting": "lambsquarters [21]", "value": "2 (Herbicidal rate of 20% or more and less than 40%)"}, {"measurement": "herbicidal effect on P: chickweed (evaluation grade 0-5)", "setting": "chickweed", "value": "5 (Herbicidal rate of 90% or more (almost completely withered))"}, {"measurement": "herbicidal effect on R: persian speedwell (evaluation grade 0-5)", "setting": "persian speedwell", "value": "4 (Herbicidal rate of 70% or more and less than 90%)"}]}]}
